Results taken from patent publication US20120277109A1, “PROXIMITY-MEDIATED ASSAYS FOR DETECTING ONCOGENIC FUSION PROTEINS” (Prometheus Laboratories Inc., priority 2009, published 2012).
Like-named read-outs stand apart in the source and are kept apart here.

Legend:
[1] = system: patients with chronic myelogenous leukemia (CML); conditions: cited from earlier work
[2] = system: BCR-ABL substrate CRKL; experiment: Sandwich ELISA of total and activated (phosphorylated) CRKL in cancer cell lines after growth factor treatment; format: cell-based, human
[3] = 400 mg/day imatinib, after 7 years

## Cc1ccc(NC(=O)c2ccc(CN3CCN(C)CC3)cc2)cc1Nc1nccc(-c2cccnc2)n1 [imatinib]
[1]; 400 mg/day imatinib, % of patients
  complete cytogenetic response (CCyR): 70-80%
[1]; [3]
  even free survival rate: 81%
  overall survival rate: 90%
[1]; 400 mg/day imatinib, in 5 years
  relapse rate: about 30%
[1]; 400 mg/day imatinib, in the first 3 years
  loss of CCyR rate: 4 to 7 %/yr
[1]; 400 mg/day imatinib, thereafter (after first 3 years)
  loss of CCyR rate: 1 to 2 %/yr
[1]; 800 mg/day imatinib compared with 400 mg/day
  toxicity: more toxic
[1]; 800 mg/day imatinib
  CCyR: 95%
  relapse rate: 5%
[1]; first line therapy, newly diagnosed patients with CML
  patients who do not achieve durable complete cytogenetic responses: 20-25%

## Cc1cn(-c2cc(NC(=O)c3ccc(C)c(Nc4nccc(-c5cccnc5)n4)c3)cc(C(F)(F)F)c2)cn1 [nilotinib]
[1]; nilotinib compared with imatinib
  toxicity: more toxic than imatinib

## epidermal growth factor [EGF, stimulatory growth factor]
[2]; A431 cells
  CRKL activation (i.e., phosphorylation) upon treatment: activated
[2]; T47D cells
  CRKL activation (i.e., phosphorylation) upon treatment: not activated

## heregulin
[2]; MCF-7 cells
  CRKL activation (i.e., phosphorylation) upon treatment: activated (i.e., phosphorylated) at low levels
[2]; T47D cells
  CRKL activation (i.e., phosphorylation) upon treatment: activated (i.e., phosphorylated) at low levels
